From patent US11938125B2, “Use of Hsp70 as a regulator of enzymatic activity” (Zevra Denmark A/S, priority 2008, dated 2024)

Assays:
[1] = tested on: WT and Hsp70 iMEFs; test: Viability of MEFs (MTT reduction); format: cell-based; conditions: 3 h
Method: The viability of cells was analyzed by the 3-(4,5-dimethylthiazole-2-yl)-2,5-diphenyltetrazolium bromide (MTT) reduction assay as described previously^67.
Assays for cell viability. Cell density was assessed by the 3-(4,5-dimethylthiazole-2-y)-2,5-[…] (MTT, SIGMA-Aldrich) reduction assay essentially as described in the art. Apoptosis-like cell death was assessed by staining the cells with 0.05 μg/ml Hoechst 33342 (Molecular Probes) and counting cells with condensed nuclei in an inverted Olympus IX-70 fluorescent Microscope (Filter U-MWU 330-385 nm). For each experiment a minimum of eight randomly chosen areas were counted.

[2] = tested on: lysosomes of Hsp70-MEFs; test: Live single-cell imaging of loss of lysosomal integrity (photo-oxidation) in Hsp70-MEFs; format: cell-based, murine; conditions: subtoxic desipramine 12.5 and 25 μM, 3 h
Method: Assays for lysosomal integrity. Sub-confluent cells incubated with 2 μg/ml acridine orange for 15 min at 37° C. were washed, irradiated and analyzed in Hanks balanced salt solution complemented with 3% fetal calf serum. Cells for single cell imaging were selected from 8 pre-defined areas of each well in transmitted light-mode after which the same cells were immediately visualized and exposed to blue light from USH102 100 W mercury arc burner (Ushio electric) installed in a U-ULS100HG housing (Olympus) for 20 sec. Fluorescence microscopy was performed on Olympus IX-70 inverted microscope with a […] 1×20 objective with NA=0.40. Loss of lysosomal pH gradient was quantified by counting the loss of intense red staining. A more elaborate method for assaying lysosomal integrity was developed to handle the larger lysosomal compartment of the various fibroblasts used in this study. Cells for single cell imaging were selected from 8 pre-defined areas of each well in transmitted light-mode after which the same cells were immediately and continuously exposed to 489 nm light from a 100 mW diode laser while laser scanning micrographs where captured every 330 ms on a Zeiss LSM LIVE DUO confocal system in two channels defined by bandpass filters for 495-555 nm (green) and LP650 nm (Red) light. The resulting timelapse movies where subsequently analysed by the integrated Zeiss LSM DUO software.

[3] = tested on: lysosomes of WT and Hsp70 iMEFs; test: Cytosolic cathepsin activity (zFRase) in MEFs; format: cell-based, murine; conditions: 3 h
Method: Cells were treated with cisplatin as indicated, cytosolic fractions were obtained by digitonin treatment and cytosolic cysteine cathepsin (zFRase) and caspase-3-like (DEVDase) activities were determined. […] The total and cytoplasmic (digitonin-extracted) cathepsin activities were measured in digitonin-treated samples using zFR-AFC (Enzyme System Products) probe as described in the art.

[4] = tested on: NPDA fibroblasts; test: Lysosomal area of confocal cross sections, NPDA fibroblasts; format: cell-based, human; conditions: NPDA fibroblasts, 24 h, 300 nM rHsp70 or W90F, 150 nM rASM or combination
From the text: Immunodetection and microscopy. Primary antibodies used included mouse monoclonal antibodies against Hsp70 (2H9; kindly provided by Boris Margulis, Russian Academy of Sciences, St. Petersburg, Russia), glyceraldehyde-3-phosphate dehydrogenase (GAPDH; Biogenesis), BMP (6C4), lysosomal integral membrane protein-1 (H5C6; developed by J. Thomas August and James E. K. Hildreth and obtained from the Developmental Studies Hybridoma Bank developed under the auspices of the NICHD and maintained by The University of Iowa, Department of Biological Sciences, Iowa City, USA). Proteins separated by 10% SDS-PAGE and transferred to a nitrocellulose membrane were detected by using indicated primary antibodies, appropriate peroxidase-conjugated secondary antibodies from Dako, ECL Western blotting reagents (Amersham), and Luminescent Image Reader (LAS-1000Plus, Fujifilm). For immunocytochemistry Alexa […] or Alexa Fluor®-488-conjugated secondary antibodies were used. Lysotracker Red® was used for live visualization of the lysosomal compartment. Fluorescence images were taken using a Zeiss Axiovert 100M laser scanning microscope. Lysotracker quantification and timelapse movies for lysosomal integrity were done on a Zeiss LSM LIVE DUO system.

[5] = tested on: acid sphingomyelinase (ASM), endogenous mutated and loaded rASM; test: ASM activity of NPDA fibroblasts; format: cell-based, human; conditions: 300 nM rHsp70 48 h, or 150 nM rASM alone or with 300 nM rHsp70 24 h
From the text: WT- and Hsp70-MEFs were generated, immortalized and maintained as described in the art. Human NPDA fibroblasts (83/24) originate from a skin biopsy of a patient with hepatosplenomegaly. Recombinant proteins were generated using the pET-16b vector system and Ni^2+-affinity-purification (Novagen), and labeled with Alexa Fluor 488 according to manufacturers protocol (Molecular Probes). To analyze the lysosomal integrity, we developed a real time imaging method of cells stained with acridine orange, a metachromatic weak base that accumulates in the acidic compartment of the cells staining them red and sensitizing them to photo-oxidation. The photo-oxidation-induced loss of the lysosomal pH-gradient and leakage of acridine orange to the cytosol from individual lysosomes was quantified visually as “loss of red dots” in U2-O—S cells and as a decrease in red and an increase in green fluorescence by Zeiss LSM DUO Software in fibroblasts. The total and cytoplasmic (digitonin-extracted) cathepsin activities were measured in digitonin-treated samples using zFR-AFC (Enzyme System Products) probe as described in the art. The tryptophan fluorescence spectra and liposome 900 light scattering were analyzed in a HEPES buffer (20 mM HEPES, 0.1 mM EDTA, pH as indicated) essentially as described in the art. […]

[6] = tested on: BMP; test: BIAcore surface plasmon resonance with immobilized BMP-containing LUVs; format: binding; conditions: pH 4.5
Method: (§1) For preparation of LUVs a lipid mixture consisting of 10 mol % sphingomyelin, 50 mol % phosphatidylcholine, 20 mol % cholesterol and 20 mol % BMP dissolved in organic solvents, was dried under a stream of argon and rehydrated in Tris/HCl buffer (pH 7.4) (Kolzer et al., 2004). The mixture was freeze-thawed nine times in liquid nitrogen and then in an incubator at 37° C. After ultrasound bath for 15 min the mixture was passed 21 times through a polycarbonate membrane with a pore diameter of 100 nm. Surface plasmon resonance measurements were performed using a BIAcore 2000 system at 25° C. LUVs (total lipid concentration 0.1 mM) were immobilized on the surface of a L1 sensor chip (BIAcore) in PBS (loading buffer). The running buffer used was sodium acetate buffer (50 mM, pH 4.5). As a control, acid sphingomyelinase (0.2 μM, 60 μl in running buffer) was injected directly on the liposome surface. Response units between 4100 RU-5250RU were obtained. The protein of interest was injected in running buffer at a flow rate of 20 μl/min at the concentrations indicated. After injection a dissociation phase of 10 min was appended.
as §1, with “Surface Plasmon Resonance (BIAcore). For” for “For”, “7.4).” for “7.4) (Kolzer et al., 2004).”, “The protein of interest was injected in running buffer at a flow rate of 20 μl/min at the concentrations indicated. After injection a dissociation phase of 10 min was appended.” left out

[7] = tested on: lysosomes of NPDA patient fibroblasts; test: Lysosomal stability of NPDA fibroblasts (photo-oxidation, live single-cell imaging); format: cell-based, human; conditions: NPDA fibroblasts, 24 h, 300 nM rHsp70, 150 nM rASM or combination
Method: Assays for lysosomal integrity. Sub-confluent cells incubated with 2 μg/ml acridine orange for 15 min at 37° C. were washed, irradiated and analyzed in Hanks balanced salt solution complemented with 3% fetal calf serum. Cells for single cell imaging were selected from 8 pre-defined areas of each well in transmitted light-mode after which the same cells were immediately visualized and exposed to blue light from USH102 100 W mercury arc burner (Ushio electric) installed in a U-ULS100HG housing (Olympus) for 20 sec. Fluorescence microscopy was performed on Olympus IX-70 inverted microscope with a LCPlanF1×20 objective with NA=0.40. Loss of lysosomal pH gradient was quantified by counting the loss of intense red staining. A more elaborate method for assaying lysosomal integrity was developed to handle the larger lysosomal compartment of the various fibroblasts used in this study. Cells for single cell imaging were selected from 8 pre-defined areas of each well in transmitted light-mode after which the same cells were immediately and continuously exposed to 489 nm light from a 100 mW diode laser while laser scanning micrographs where captured every 330 ms on a Zeiss LSM LIVE DUO confocal system in two channels defined by bandpass filters for 495-555 nm (green) and LP650 nm (Red) light. The resulting timelapse movies where subsequently analysed by the integrated Zeiss LSM DUO software. The total and cytoplasmic (digitonin-extracted) cathepsin activities were measured in digitonin-treated samples using zFR-AFC (Enzyme System Products) probe as described in the art.

Row | Molecule | desipramine-induced cell death and lysosomal leakage in Hsp70-MEFs as compared to WT-MEFs [1] | viability (MTT reduction) ([1]; MEFs) | lysosomal stress resistance upon photo-oxidation [2] | permeabilization of lysosomes (leakage of lysosomal cathepsins into the cytosol) [3] | lysosomal area / volume of the lysosomal compartment [4] | ASM activity [5] | affinity for BMP compared to that of Hsp70 [6] | lysosomal stability [7]
1 | CNCCCN1c2ccccc2CCc2ccccc21 [desipramine] | significantly reduced | reduced the viability of MEFs in a dose-dependent manner | reverted the lysosomal stress resistance of Hsp70-MEFs to the level of WT-MEFs | massive permeabilization of lysosomes |  |  |  | 
2 | rASM: recombinant acid sphingomyelinase (protein, UniProt P17405 47-631, looked up) Sphingomyelin …: LALSDSRVLWAPAEAHPLSPQGHPARLHRIVPRLRDVFGWGNLTCPICKGLFTAINLGLKKEPNVARVGSVAIKLCNLLKIAPPAVCQSIVHLFEDDMVEVWRRSVLSPSEACGLLLGSTCGHWDIFSSWNISLPTVPKPPPKPPSPPAPGAPVSRILFLTDLHWDHDYLEGTDPDCADPLCCRRGSGLPPASRPGAGYWGEYSKCDLPLRTLESLLSGLGPAGPFDMVYWTGDIPAHDVWHQTRQDQLRALTTVTALVRKFLGPVPVYPAVGNHESTPVNSFPPPFIEGNHSSRWLYEAMAKAWEPWLPAEALRTLRIGGFYALSPYPGLRLISLNMNFCSRENFWLLINSTDPAGQLQWLVGELQAAEDRGDKVHIIGHIPPGHCLKSWSWNYYRIVARYENTLAAQFFGHTHVDEFEVFYDEETLSRPLAVAFLAPSATTYIGLNPGYRVYQIDGNYSGSSHVVLDHETYILNLTQANIPGAIPHWQLLYRARETYGLPNTLPTAWHNLVYRMRGDMQLFQTFWFLYHKGHPPSEPCGTPCRLATLCAQLSARADSPALCRHLMPDGSLPEAQSLWPRPLFC |  |  |  |  | normalize the volume of the dramatically enlarged lysosomal compartment | increased ASM activity | half | ability to stabilize the lysosomes
